ChEMBL document CHEMBL1201861, “Genomics of Drug Sensitity in Cancer screening data, Wellcome Trust Sanger Institute”
Counter-ions that a name gives are not always drawn.

Columns and labels:
Assay in all cases: cells
CP66-MEL = type: functional, cell-based, Homo sapiens;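 further: growth inhibition of CP66-MEL cells determined in a cell viability assay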
Description: SANGER: Inhibition of human CP66-MEL cell growth in a cell viability assay.

D283 Med = type: functional, cell-based, Homo sapiens
Description: SANGER: Inhibition of human D-283MED cell growth in a cell viability assay.

DSH1 = type: functional, cell-based, Homo sapiens;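 further: growth inhibition of human DSH1 cells, measured with a cell viability readout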
Description: SANGER: Inhibition of human DSH1 cell growth in a cell viability assay.

ES3 = type: functional, cell-based, Homo sapiens;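 further: growth inhibition of ES3 cells, read out with a cell viability assay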
Description: SANGER: Inhibition of human ES3 cell growth in a cell viability assay.

ES8 = type: functional, cell-based, Homo sapiens;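 further: growth inhibition of human ES8 cells, read out with a cell viability assay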
Description: SANGER: Inhibition of human ES8 cell growth in a cell viability assay.

EW-11 = type: functional, cell-based, Homo sapiens;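 further: growth inhibition of human EW-11 cells, measured with a cell viability assay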
Description: SANGER: Inhibition of human EW-11 cell growth in a cell viability assay.

EW-24 = type: functional, cell-based, Homo sapiens;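 further: human EW-24 cancer cell line, growth inhibition read out via a cell viability assay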
Description: SANGER: Inhibition of human EW-24 cell growth in a cell viability assay.

EW-3 = type: functional, cell-based, Homo sapiens;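 further: cell viability assay read-out, IC50 reflects inhibition of growth of the EW-3 cells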
Description: SANGER: Inhibition of human EW-3 cell growth in a cell viability assay.

GB-1 = type: functional, cell-based, Homo sapiens;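 further: growth of GB-1 cells judged by a viability assay, IC50 marks the concentration inhibiting growth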
Description: SANGER: Inhibition of human GB-1 cell growth in a cell viability assay.

GR-ST = type: functional, cell-based, Homo sapiens
Description: SANGER: Inhibition of human GR-ST cell growth in a cell viability assay.

HCC2218 = type: functional, cell-based, Homo sapiens;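 further: cell viability assay read-out, with IC50 given as the concentration that inhibits growth of the cell line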
Description: SANGER: Inhibition of human HCC2218 cell growth in a cell viability assay.

HCE-T = type: functional, cell-based, Homo sapiens;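 further: cell viability assay read-out, reporting inhibition of HCE-T cell growth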
Description: SANGER: Inhibition of human HCE-T cell growth in a cell viability assay.

HEL = type: functional, cell-based, Homo sapiens;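 further: growth inhibition of HEL cells, read out with a cell viability assay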
Description: SANGER: Inhibition of human HEL cell growth in a cell viability assay.

IA-LM = type: functional, cell-based, Homo sapiens;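 further: cell viability assay measuring growth inhibition of human IA-LM cells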
Description: SANGER: Inhibition of human IA-LM cell growth in a cell viability assay.

IST-MEL1 = type: functional, cell-based, Homo sapiens;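 further: growth inhibition of the cell line, read out with a cell viability assay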
Description: SANGER: Inhibition of human IST-MEL1 cell growth in a cell viability assay.

JVM-3 = type: functional, cell-based, Homo sapiens;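 further: growth inhibition of human JVM-3 cells, read out with a cell viability assay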
Description: SANGER: Inhibition of human JVM-3 cell growth in a cell viability assay.

KARPAS-45 = type: functional, cell-based, Homo sapiens;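 further: inhibition of cell line growth, read out through a viability assay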
Description: SANGER: Inhibition of human KARPAS-45 cell growth in a cell viability assay.

KM12 = type: functional, cell-based, Homo sapiens;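 further: KM12 cell growth inhibition, read out with a cell viability assay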
Description: SANGER: Inhibition of human KM12 cell growth in a cell viability assay.

KNS-81-FD = type: functional, cell-based, Homo sapiens;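 further: growth inhibition of KNS-81-FD cells, read out with a cell viability assay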
Description: SANGER: Inhibition of human KNS-81-FD cell growth in a cell viability assay.

LC-2-ad = type: functional, cell-based, Homo sapiens;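 further: growth inhibition of human LC-2-ad cells, read out with a cell viability assay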
Description: SANGER: Inhibition of human LC-2-ad cell growth in a cell viability assay.

LNCaP-Clone-FGC = type: functional, cell-based, Homo sapiens
Description: SANGER: Inhibition of human LNCaP-Clone-FGC cell growth in a cell viability assay.

LU-134-A = type: functional, cell-based, Homo sapiens
Description: SANGER: Inhibition of human LU-134-A cell growth in a cell viability assay.

MC116 = type: functional, cell-based, Homo sapiens;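 further: growth inhibition of MC116 cells, read out with a cell viability assay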
Description: SANGER: Inhibition of human MC116 cell growth in a cell viability assay.

MEG-01 = type: functional, cell-based, Homo sapiens;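 further: growth inhibition of MEG-01 cells, read out by a cell viability assay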
Description: SANGER: Inhibition of human MEG-01 cell growth in a cell viability assay.

NCI-H23 = type: functional, cell-based, Homo sapiens;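 further: cell viability assay measuring growth inhibition of NCI-H23 cells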
Description: SANGER: Inhibition of human NCI-H23 cell growth in a cell viability assay.

NCI-H526 = type: functional, cell-based, Homo sapiens;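 further: growth inhibition of the human NCI-H526 cell line, measured by a cell viability assay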
Description: SANGER: Inhibition of human NCI-H526 cell growth in a cell viability assay.

NCI-H747 = type: functional, cell-based, Homo sapiens;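 further: growth inhibition of human NCI-H747 cells, read out by a cell viability assay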
Description: SANGER: Inhibition of human NCI-H747 cell growth in a cell viability assay.

NCI-N87 = type: functional, cell-based, Homo sapiens;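 further: growth inhibition of human NCI-N87 cells, read out with a cell viability assay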
Description: SANGER: Inhibition of human NCI-N87 cell growth in a cell viability assay.

NKM-1 = type: functional, cell-based, Homo sapiens;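 further: growth inhibition of NKM-1 cells, read out with a cell viability assay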
Description: SANGER: Inhibition of human NKM-1 cell growth in a cell viability assay.

NOMO-1 = type: functional, cell-based, Homo sapiens;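 further: growth inhibition of human NOMO-1 cells measured by a cell viability assay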
Description: SANGER: Inhibition of human NOMO-1 cell growth in a cell viability assay.

RH-1 = type: functional, cell-based, Homo sapiens;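 further: growth inhibition of human RH-1 cells, read out with a cell viability assay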
Description: SANGER: Inhibition of human RH-1 cell growth in a cell viability assay.

SH-4 = type: functional, cell-based, Homo sapiens;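 further: growth inhibition of SH-4 cells, read out with a cell viability assay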
Description: SANGER: Inhibition of human SH-4 cell growth in a cell viability assay.

SHP77 = type: functional, cell-based, Homo sapiens, SHP-77;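 further: growth inhibition of human SHP-77 cells measured by a cell viability assay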
Description: SANGER: Inhibition of human SHP-77 cell growth in a cell viability assay.

SK-MEL-2 = type: functional, cell-based, Homo sapiens;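 further: growth inhibition of human SK-MEL-2 cells measured with a cell viability assay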
Description: SANGER: Inhibition of human SK-MEL-2 cell growth in a cell viability assay.

SK-N-DZ = type: functional, cell-based, Homo sapiens;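 further: growth inhibition of the cancer cell line, read out through a viability assay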
Description: SANGER: Inhibition of human SK-N-DZ cell growth in a cell viability assay.

SK-N-FI = type: functional, cell-based, Homo sapiens;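 further: cell viability assay measuring growth inhibition of human SK-N-FI cells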
Description: SANGER: Inhibition of human SK-N-FI cell growth in a cell viability assay.

SK-UT-1 = type: functional, cell-based, Homo sapiens;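 further: growth inhibition of SK-UT-1 cells, measured by a cell viability assay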
Description: SANGER: Inhibition of human SK-UT-1 cell growth in a cell viability assay.

SW 954 = type: functional, cell-based, Homo sapiens;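 further: growth inhibition of SW954 human cancer cells, read out as cell viability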
Description: SANGER: Inhibition of human SW954 cell growth in a cell viability assay.

TE-1 = type: functional, cell-based, Homo sapiens
Description: SANGER: Inhibition of human TE-1 cell growth in a cell viability assay.

A388 = type: functional, cell-based, Homo sapiens;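 further: growth inhibition of human A388 cells, read out with a cell viability assay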
Description: SANGER: Inhibition of human A388 cell growth in a cell viability assay.

A4-Fuk = type: functional, cell-based, Homo sapiens;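 further: growth inhibition of A4-Fuk cells, read out by a cell viability assay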
Description: SANGER: Inhibition of human A4-Fuk cell growth in a cell viability assay.

A498 = type: functional, cell-based, Homo sapiens;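 further: growth inhibition of human A498 cells, read out with a cell viability assay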
Description: SANGER: Inhibition of human A498 cell growth in a cell viability assay.

ACN = type: functional, cell-based, Homo sapiens;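 further: growth inhibition of the human ACN cell line, read out via cell viability testing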
Description: SANGER: Inhibition of human ACN cell growth in a cell viability assay.

BE-13 = type: functional, cell-based, Homo sapiens;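 further: growth inhibition of human BE-13 cells, measured with a cell viability assay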
Description: SANGER: Inhibition of human BE-13 cell growth in a cell viability assay.

TE-12 = type: functional, cell-based, Homo sapiens;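 further: growth inhibition of TE-12 cells, read out by a cell viability assay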
Description: SANGER: Inhibition of human TE-12 cell growth in a cell viability assay.

U-266 = type: functional, cell-based, Homo sapiens
Description: SANGER: Inhibition of human U-266 cell growth in a cell viability assay.

U-87 MG = type: functional, cell-based, Homo sapiens, U-87MG ATCC;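 further: growth inhibition of the cells measured with a viability assay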
Description: SANGER: Inhibition of human U-87-MG cell growth in a cell viability assay.

CCRF-CEM = type: functional, cell-based, Homo sapiens;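 further: inhibition of CCRF-CEM cell growth, measured by a cell viability assay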
Description: SANGER: Inhibition of human CCRF-CEM cell growth in a cell viability assay.

COLO-668 = type: functional, cell-based, Homo sapiens
Description: SANGER: Inhibition of human COLO-668 cell growth in a cell viability assay.

COC1=CC(c2cc3ccccc3[nH]2)=N/C1=C\c1[nH]c(C)cc1C [OBATOCLAX MESYLATE]
IC50 (CP66-MEL; Homo sapiens, CP66-MEL): 0.871 µM
IC50 (D283 Med; Homo sapiens, D283 Med): 1.12 µM
IC50 (DSH1; Homo sapiens, DSH1): 4.47 µM
IC50 (ES3; Homo sapiens, ES3): 0.278 µM
IC50 (ES8; Homo sapiens, ES8): 0.116 µM
IC50 (EW-11; Homo sapiens, EW-11): 5.18 µM
IC50 (EW-24; Homo sapiens, EW-24): 0.34 µM
IC50 (EW-3; Homo sapiens, EW-3): 3.41 µM
IC50 (GB-1; Homo sapiens, GB-1): 0.164 µM
IC50 (GR-ST; Homo sapiens, GR-ST): < 0.0625 µM
IC50 (HCC2218; Homo sapiens, HCC2218): 2.41 µM
IC50 (HCE-T; Homo sapiens, HCE-T): 0.125 µM
IC50 (HEL; Homo sapiens, HEL): 0.154 µM
IC50 (IA-LM; Homo sapiens, IA-LM): 0.0605 µM
IC50 (IST-MEL1; Homo sapiens, IST-MEL1): < 0.0625 µM
IC50 (JVM-3; Homo sapiens, JVM-3): > 16 µM
IC50 (KARPAS-45; Homo sapiens, KARPAS-45): < 0.0625 µM
IC50 (KM12; Homo sapiens, KM12): 0.318 µM
IC50 (KNS-81-FD; Homo sapiens, KNS-81-FD): 0.367 µM
IC50 (LC-2-ad; Homo sapiens, LC-2-ad): 0.0158 µM
IC50 (LNCaP-Clone-FGC; Homo sapiens, LNCaP-Clone-FGC): 2.3 µM
IC50 (LU-134-A; Homo sapiens, LU-134-A): > 16 µM
IC50 (MC116; Homo sapiens, MC116): 0.113 µM
IC50 (MEG-01; Homo sapiens, MEG-01): 0.454 µM
IC50 (NCI-H23; Homo sapiens, NCI-H23): 10.6 µM
IC50 (NCI-H526; Homo sapiens, NCI-H526): 2.63 µM
IC50 (NCI-H747; Homo sapiens, NCI-H747): 0.143 µM
IC50 (NCI-N87; Homo sapiens, NCI-N87): 4.39 µM
IC50 (NKM-1; Homo sapiens, NKM-1): < 0.0625 µM
IC50 (NOMO-1; Homo sapiens, NOMO-1): 0.564 µM
IC50 (RH-1; Homo sapiens, RH-1): 0.222 µM
IC50 (SH-4; Homo sapiens, SH-4): < 0.0625 µM
IC50 (SHP77; Homo sapiens, SHP77): 2.01 µM
IC50 (SK-MEL-2; Homo sapiens, SK-MEL-2): 0.157 µM
IC50 (SK-N-DZ; Homo sapiens, SK-N-DZ): 0.859 µM
IC50 (SK-N-FI; Homo sapiens, SK-N-FI): 14.9 µM
IC50 (SK-UT-1; Homo sapiens, SK-UT-1): 0.136 µM
IC50 (SW 954; Homo sapiens, SW 954): 0.403 µM
IC50 (TE-1; Homo sapiens, TE-1): 0.144 µM
IC50 (A388; Homo sapiens, A388): 0.057 µM
IC50 (A4-Fuk; Homo sapiens, A4-Fuk): 0.0895 µM
IC50 (A498; Homo sapiens, A498): > 16 µM
IC50 (ACN; Homo sapiens, ACN): < 0.0625 µM
IC50 (BE-13; Homo sapiens, BE-13): 0.129 µM
IC50 (TE-12; Homo sapiens, TE-12): 0.333 µM
IC50 (U-266; Homo sapiens, U-266): 0.311 µM
IC50 (U-87 MG; Homo sapiens, U-87 MG): 2.29 µM
IC50 (CCRF-CEM; Homo sapiens, CCRF-CEM): 0.771 µM
IC50 (COLO-668; Homo sapiens, COLO-668): 1330 nM

CO[C@H]1C[C@@H]2CC[C@@H](C)[C@@](O)(O2)C(=O)C(=O)N2CCCC[C@H]2C(=O)O[C@H]([C@H](C)C[C@@H]2CC[C@@H](OC(=O)C(C)(CO)CO)[C@H](OC)C2)CC(=O)[C@H](C)/C=C(\C)[C@@H](O)[C@@H](OC)C(=O)[C@H](C)C[C@H](C)/C=C/C=C/C=C/1C [TEMSIROLIMUS]
IC50 (CP66-MEL; Homo sapiens, CP66-MEL): > 0.2 µM
IC50 (D283 Med; Homo sapiens, D283 Med): > 0.2 µM
IC50 (DSH1; Homo sapiens, DSH1): > 0.2 µM
IC50 (ES3; Homo sapiens, ES3): 0.0851 µM
IC50 (ES8; Homo sapiens, ES8): 0.00527 µM
IC50 (EW-11; Homo sapiens, EW-11): 0.0156 µM
IC50 (EW-24; Homo sapiens, EW-24): > 0.2 µM
IC50 (EW-3; Homo sapiens, EW-3): 0.0492 µM
IC50 (GB-1; Homo sapiens, GB-1): > 0.2 µM
IC50 (GR-ST; Homo sapiens, GR-ST): 0.0333 µM
IC50 (HCC2218; Homo sapiens, HCC2218): > 0.2 µM
IC50 (HCE-T; Homo sapiens, HCE-T): 0.0492 µM
IC50 (HEL; Homo sapiens, HEL): 0.158 µM
IC50 (IA-LM; Homo sapiens, IA-LM): > 0.2 µM
IC50 (IST-MEL1; Homo sapiens, IST-MEL1): 0.123 µM
IC50 (JVM-3; Homo sapiens, JVM-3): 0.00395 µM
IC50 (KARPAS-45; Homo sapiens, KARPAS-45): 0.0513 µM
IC50 (KM12; Homo sapiens, KM12): > 0.2 µM
IC50 (KNS-81-FD; Homo sapiens, KNS-81-FD): 0.138 µM
IC50 (LC-2-ad; Homo sapiens, LC-2-ad): > 0.2 µM
IC50 (LNCaP-Clone-FGC; Homo sapiens, LNCaP-Clone-FGC): 0.184 µM
IC50 (LU-134-A; Homo sapiens, LU-134-A): 0.0289 µM
IC50 (MC116; Homo sapiens, MC116): 0.0255 µM
IC50 (MEG-01; Homo sapiens, MEG-01): 0.0882 µM
IC50 (NCI-H23; Homo sapiens, NCI-H23): > 0.2 µM
IC50 (NCI-H526; Homo sapiens, NCI-H526): 0.0616 µM
IC50 (NCI-H747; Homo sapiens, NCI-H747): > 0.2 µM
IC50 (NCI-N87; Homo sapiens, NCI-N87): 0.175 µM
IC50 (NKM-1; Homo sapiens, NKM-1): 0.198 µM
IC50 (NOMO-1; Homo sapiens, NOMO-1): 0.168 µM
IC50 (RH-1; Homo sapiens, RH-1): > 0.2 µM
IC50 (SH-4; Homo sapiens, SH-4): > 0.2 µM
IC50 (SHP77; Homo sapiens, SHP77): > 0.2 µM
IC50 (SK-MEL-2; Homo sapiens, SK-MEL-2): > 0.2 µM
IC50 (SK-N-DZ; Homo sapiens, SK-N-DZ): > 0.2 µM
IC50 (SK-N-FI; Homo sapiens, SK-N-FI): > 0.2 µM
IC50 (SK-UT-1; Homo sapiens, SK-UT-1): 0.0641 µM
IC50 (SW 954; Homo sapiens, SW 954): > 0.2 µM
IC50 (TE-1; Homo sapiens, TE-1): > 0.2 µM
IC50 (A388; Homo sapiens, A388): > 0.2 µM
IC50 (A4-Fuk; Homo sapiens, A4-Fuk): 0.0818 µM
IC50 (A498; Homo sapiens, A498): > 0.2 µM
IC50 (ACN; Homo sapiens, ACN): 0.013 µM
IC50 (BE-13; Homo sapiens, BE-13): 0.00491 µM
IC50 (TE-12; Homo sapiens, TE-12): > 0.2 µM
IC50 (U-266; Homo sapiens, U-266): 0.151 µM
IC50 (U-87 MG; Homo sapiens, U-87 MG): > 0.2 µM
IC50 (CCRF-CEM; Homo sapiens, CCRF-CEM): > 0.2 µM
IC50 (COLO-668; Homo sapiens, COLO-668): > 200 nM

BLEOMYCIN
IC50 (CP66-MEL; cp66-mel): 957 µM
IC50 (D283 Med; d283 med): 3.81 µM
IC50 (DSH1; dsh1): 155 µM
IC50 (ES3; es3): 1.61 µM
IC50 (ES8; es8): 1.4 µM
IC50 (EW-11; ew-11): 6.41 µM
IC50 (EW-24; ew-24): 95.3 µM
IC50 (EW-3; ew-3): 18.5 µM
IC50 (GB-1; gb-1): 0.39 µM
IC50 (GR-ST; gr-st): 23.1 µM
IC50 (HCC2218; hcc2218): 41.9 µM
IC50 (HCE-T; hce-t): 2.83 µM
IC50 (HEL; hel): 10.8 µM
IC50 (IA-LM; ia-lm): 3.4 µM
IC50 (IST-MEL1; ist-mel1): 0.28 µM
IC50 (JVM-3; jvm-3): 429 µM
IC50 (KARPAS-45; karpas-45): 213 µM
IC50 (KM12; km12): 9.19 µM
IC50 (KNS-81-FD; kns-81-fd): 664 µM
IC50 (LC-2-ad; lc-2-ad): 0.0804 µM
IC50 (LNCaP-Clone-FGC; lncap-clone-fgc): 18.3 µM
IC50 (LU-134-A; lu-134-a): 41.8 µM
IC50 (MC116; mc116): 2.11 µM
IC50 (MEG-01; meg-01): 0.395 µM
IC50 (NCI-H23; nci-h23): 2.47 µM
IC50 (NCI-H526; nci-h526): 1.28 µM
IC50 (NCI-H747; nci-h747): 1.21 µM
IC50 (NCI-N87; nci-n87): 2.96 µM
IC50 (NKM-1; nkm-1): 0.00765 µM
IC50 (NOMO-1; nomo-1): 4.2 µM
IC50 (RH-1; rh-1): 0.152 µM
IC50 (SH-4; sh-4): 7.85 µM
IC50 (SHP77; shp-77): 142 µM
IC50 (SK-MEL-2; sk-mel-2): 8.49 µM
IC50 (SK-N-DZ; sk-n-dz): 170 µM
IC50 (SK-N-FI; sk-n-fi): 2100 µM
IC50 (SK-UT-1; sk-ut-1): 0.00629 µM
IC50 (SW 954; sw 954): 0.00957 µM
IC50 (TE-1; te-1): 6.43 µM
IC50 (A388; a388): 0.877 µM
IC50 (A4-Fuk; a4-fuk): 25.3 µM
IC50 (A498; a498): 1020 µM
IC50 (ACN; acn): 0.808 µM
IC50 (BE-13; be-13): 0.399 µM
IC50 (TE-12; te-12): 0.719 µM
IC50 (U-266; u-266): 282 µM
IC50 (U-87 MG; u-87mg atcc): 11.1 µM
IC50 (CCRF-CEM; ccrf-cem): 0.0787 µM
IC50 (COLO-668; colo-668): 0.0218 nM
